Measured values from PubChem BioAssay (NCI).
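A five-concentration, 48-hour dose response in 96-well plates underlies each endpoint, interpolated linearly between surrounding concentrations. The concentration for 50% growth inhibition is given as GI50. Definition used: TGI = concentration required for complete inhibition of growth.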

Experiments:
Test in all cases: NCI tumour cell line growth inhibition, 48 h
A498 renal = tested on: A498 renal
M14 melanoma = tested on: M14 melanoma
MDA-MB-435 = tested on: MDA-MB-435
HCT-15 colon = tested on: HCT-15 colon
PC-3 prostate = tested on: PC-3 prostate
SF-295 CNS = tested on: SF-295 CNS
RPMI-8226 leukemia = tested on: RPMI-8226 leukemia
OVCAR-3 ovarian = tested on: OVCAR-3 ovarian
U251 CNS = tested on: U251 CNS
OVCAR-5 ovarian = tested on: OVCAR-5 ovarian

| Compound | TGI (A498 renal) | TGI (M14 melanoma) | TGI (MDA-MB-435) | TGI (HCT-15 colon) | TGI (PC-3 prostate) | TGI (SF-295 CNS) | TGI (RPMI-8226 leukemia) | TGI (OVCAR-3 ovarian) | TGI (U251 CNS) | TGI (OVCAR-5 ovarian) | GI50 (M14 melanoma) | GI50 (OVCAR-5 ovarian) | GI50 (MDA-MB-435) | GI50 (HCT-15 colon) | GI50 (PC-3 prostate) | GI50 (SF-295 CNS) | GI50 (OVCAR-3 ovarian) |
| --- | --- | --- | --- | --- | --- | --- | --- | --- | --- | --- | --- | --- | --- | --- | --- | --- | --- |
| Cc1cc(N2CCCC2)c([N+](=O)[O-])cc1[N+](=O)[O-] | > 100 µM | > 100 µM | > 100 µM | > 100 µM | > 100 µM | > 100 µM | > 100 µM | > 100 µM | > 100 µM |  |  |  |  |  |  |  |  |
| C=Cc1nc(C#N)c(N)o1 | > 100 µM | > 100 µM | > 100 µM | > 100 µM | > 100 µM | > 100 µM | > 100 µM | > 100 µM | > 100 µM | > 100 µM |  |  |  |  |  |  |  |
| CC(=O)Oc1cc(OC(C)=O)c2c(C)cc(=O)oc2c1 | > 100 µM | > 100 µM | > 100 µM | > 100 µM | > 100 µM | > 100 µM | > 100 µM | > 100 µM | > 100 µM | > 100 µM |  |  |  |  |  |  |  |
| COC(=O)c1ccccc1C1=C([N+](=O)[O-])C(c2ccccc2)C(C#N)=C(N)O1 (stereo unspecified) |  | > 100 µM | > 100 µM | 46.6 µM | > 100 µM | > 100 µM | > 100 µM | 88.9 µM | > 100 µM | > 100 µM |  |  |  |  |  |  |  |
| O=[N+]([O-])c1ccc([N+]2=NC(c3ccccc3)=NN(c3ccccc3)C2)cc1 |  | > 100 µM |  | > 100 µM |  | > 100 µM | > 100 µM | > 100 µM | > 100 µM | > 100 µM |  |  |  |  |  |  |  |
| COc1cccc(-c2nccc3c(OCc4ccccc4)c(OC)c(OC)cc23)c1 | > 100 µM | > 100 µM |  | > 100 µM |  | > 100 µM | > 100 µM | > 100 µM | > 100 µM | > 100 µM |  |  |  |  |  |  |  |
| N[C@H](CCC(=O)NCP(=O)(O)O)C(=O)O | > 100 µM |  | > 100 µM | > 100 µM | > 100 µM | > 100 µM | > 100 µM | > 100 µM | > 100 µM | > 100 µM |  |  |  |  |  |  |  |
| O=C1CS(=O)(=O)C(c2cccc(Oc3ccccc3)c2)N1c1ccccc1 (stereo unspecified) | 41.8 µM | 38.7 µM | 68.2 µM | 66 µM | 66.8 µM | > 100 µM |  | 55.1 µM | 33.3 µM | > 100 µM |  |  |  |  |  |  |  |
| O=C(O)CNC(=O)c1ccc2cc(C(=O)N3CC(CCl)c4ccc([N+](=O)[O-])cc43)[nH]c2c1 (stereo unspecified) |  | > 100 µM | > 100 µM | > 100 µM | > 100 µM | > 100 µM | > 100 µM | > 100 µM | > 100 µM | > 100 µM |  |  |  |  |  |  |  |
| COC([C@@H](OC(=O)c1ccccc1)[C@H](OC(=O)c1ccccc1)C(O)COC(=O)c1ccccc1)n1cc(C)c(=O)[nH]c1=O (stereo partly specified) |  | 76 µM | > 100 µM | > 100 µM | > 100 µM | 78.7 µM | > 100 µM | 97.1 µM | 58.3 µM | 62.6 µM |  |  |  |  |  |  |  |
| COc1ccc(N=C2C(=Nc3ccc(OC)cc3)N(c3ccc(N(C)C)cc3)C(=S)N2c2ccc(OC)cc2)cc1 | > 100 µM | > 100 µM | > 100 µM | > 100 µM | > 100 µM |  | > 100 µM | > 100 µM | > 100 µM | > 100 µM |  |  |  |  |  |  |  |
| CN(Cc1cnc2nc(N)nc(N)c2n1)c1ccc(C(=O)NC(CCC(=O)NC(CC(P(=O)(O)O)P(=O)(O)O)C(=O)O)C(=O)O)cc1 (stereo unspecified) |  | > 100 µM | > 100 µM | > 100 µM | > 100 µM | > 100 µM |  | > 100 µM | > 100 µM | > 100 µM |  |  |  |  |  |  |  |
| Cc1c(-c2nnc(-c3ccccc3)o2)c(=O)n(-c2ccccc2)n1C | > 100 µM | > 100 µM |  | > 100 µM |  | > 100 µM | > 100 µM | > 100 µM | > 100 µM |  |  |  |  |  |  |  |  |
| O=C(CSc1nnc(-c2ccc(N=Cc3ccc(Cl)cc3)cc2)o1)Nc1ccc([N+](=O)[O-])cc1 |  | 42 µM |  | 32.6 µM |  | 79.4 µM | 8.01 µM |  | 37.1 µM |  |  |  |  |  |  |  |  |
| COc1ccc([C@]23CCN4COC[C@@H]([C@H]42)C2(CC3)OCC(C)(C)CO2)cc1OC | > 100 µM | > 100 µM | > 100 µM | > 100 µM | > 100 µM | > 100 µM | > 100 µM |  | > 100 µM | > 100 µM |  |  |  |  |  |  |  |
| Cc1c(O)c(OC2OC(CO)C(O)C(O)C2O)cc2c1C=C[C@@H]1[C@@]2(C)C(=O)C[C@]2(C)[C@@H]([C@@](C)(O)C(=O)CCC(C)(C)O)[C@H](O)C[C@@]12C (stereo partly specified) | 36.7 µM | 68.9 µM | 66.5 µM | 66.3 µM | 44.5 µM | 36 µM |  | 46.9 µM | 43.2 µM | 61.2 µM |  |  |  |  |  |  |  |
| Cc1c2ccccc2c(C)n2c1nc1ccccc12 | 25.5 µM | 24.1 µM | 19.1 µM | 65.7 µM | 25.2 µM | 25.3 µM | > 100 µM | 21.8 µM |  | 48.3 µM |  |  |  |  |  |  |  |
| O=C(C(Cl)=C(N1CCCCC1)N1CCCCC1)C(Cl)Cl | > 100 µM | > 100 µM | > 100 µM | > 100 µM | > 100 µM | > 100 µM | > 100 µM | > 100 µM |  |  |  |  |  |  |  |  |  |
| CC12ON(P(=O)(c3ccccc3)c3ccccc3)C(C)(c3ccccc31)c1ccccc12 |  | > 100 µM | > 100 µM | > 100 µM | > 100 µM | > 100 µM | > 100 µM | > 100 µM | > 100 µM | > 100 µM |  |  |  |  |  |  |  |
| CCCCn1c2ccccc2c2ccc3c(c21)C(=O)C=CC3=O | > 100 µM | > 100 µM |  | > 100 µM |  | > 100 µM | > 100 µM | > 100 µM | > 100 µM | > 100 µM |  |  |  |  |  |  |  |
| N=c1oc2ccccc2cc1-c1nc2ccccc2c(=O)[nH]1 |  | > 100 µM | > 100 µM | > 100 µM | > 100 µM | > 100 µM | > 100 µM |  | > 100 µM | > 100 µM |  |  |  |  |  |  |  |
| Clc1ccc(C2CC(c3cccc(Nc4ccncc4)c3)=NN2c2cc(Cl)cc(Cl)c2)cc1 (stereo unspecified) |  | 3.9 µM | 3.16 µM | 3.45 µM | 3.29 µM | 3.23 µM |  | 3.41 µM |  | 3.33 µM | 1.81 µM | 1.78 µM | 1.71 µM | 1.77 µM | 1.69 µM | 1.76 µM | 1.84 µM |
| CN[C@@H](C)[C@@H](O)c1ccccc1 |  | > 100 µM | > 100 µM | > 100 µM | > 100 µM | > 100 µM | > 100 µM | > 10 µM | > 100 µM | > 100 µM |  |  |  |  |  |  |  |
